Target: T1, DGAT1 enzyme (Homo sapiens, UniProt O75907)
T1 construct: made in house
T1 sequence (O75907 1-488): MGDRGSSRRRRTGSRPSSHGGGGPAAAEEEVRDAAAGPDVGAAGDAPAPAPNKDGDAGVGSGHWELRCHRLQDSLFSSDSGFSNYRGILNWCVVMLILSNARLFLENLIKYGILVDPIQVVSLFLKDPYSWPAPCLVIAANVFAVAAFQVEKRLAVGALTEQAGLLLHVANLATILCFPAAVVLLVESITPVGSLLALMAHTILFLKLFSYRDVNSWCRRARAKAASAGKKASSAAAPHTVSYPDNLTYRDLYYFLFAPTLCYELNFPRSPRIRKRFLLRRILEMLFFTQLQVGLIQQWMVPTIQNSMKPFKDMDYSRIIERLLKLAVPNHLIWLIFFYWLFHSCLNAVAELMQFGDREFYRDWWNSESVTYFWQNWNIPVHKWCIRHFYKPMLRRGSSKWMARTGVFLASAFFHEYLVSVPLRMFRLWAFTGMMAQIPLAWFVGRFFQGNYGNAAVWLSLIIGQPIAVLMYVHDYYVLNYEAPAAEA
Experiment: DGAT1 inhibitory activity test
Assay type: biochemical
Settings: test compound concentration of 0.05 μg/ml; read-out: Inhibitory Rate
Experimental: DGAT1 enzyme was prepared and stored according to the method described in US2007/0249620.
(2) DGAT1 Inhibitory Activity Test
A reaction solution having the following composition was incubated at room temperature (23° C.) for 30 minutes: 175 mM Tris-HCl (pH 8.0), 8 mM MgCl2, 1 mg/ml BSA, 0.3 mM 1,2-dioleoyl-sn-glycerol (10-fold concentration of EtOH solution, 10% added), 10 μM [^14C]-oleoyl-CoA (approximately 50 mCi/mmol), 0.5% Triton X-100, the DGAT1 enzyme (10 μg) obtained in Test Example 1(1), and a test compound or vehicle (DMSO/MeOH, 7:3 solution, 5% added), […] in total. A reaction stop solution ([…] consisting of isopropanol/1-heptane/water (80:20:2, v/v/v) was added to the reaction solution and stirred. Subsequently, water (30 μl) and 1-heptane (100 μl) were added thereto and stirred. The 1-heptane layer (50 μl) was spotted onto a TLC plate and developed with a developing solvent consisting of 1-hexane/diethyl ether/acetic acid (85:15:1, v/v/v). The radioactivity of the triglyceride fraction was quantified using BAS2000 Bio Image Analyzer (FUJIFILM) and compared with the control. The inhibitory activity of the test compound was calculated according to the formula shown below. In this context, the radioactivity at no reaction (0 minute incubation) was used as background. Inhibitory Rate=100−[(Radioactivity of sample supplemented with test compound)−(Background)]/[(Radioactivity of control)−(Background)]×100

Row | inhibition at 0.05 µg/mL [%] | Structure (SMILES)
1 | ≥ 50 | CN(C)C(=O)C[C@H]1CC[C@H](OC(=O)N2CCc3cc(NC(=O)Nc4ccccc4F)ccc3C2)CC1 [Example 33, trans-6-[3-(2-fluoro-phenyl)-ureido]-3,4-dihydro-1H-isoquinoline-2-carboxylic acid 4-dimethylcarbamoylmethyl-cyclohexyl ester]
2 | ≥ 50 | CNC(=O)C[C@H]1CC[C@H](OC(=O)N2CCc3cc(NC(=O)Nc4ccccc4F)ccc3C2)CC1 [Example 34, trans-6-[3-(2-fluoro-phenyl)-ureido]-3,4-dihydro-1H-isoquinoline-2-carboxylic acid 4-methylcarbamoylmethyl-cyclohexyl ester]
3 | ≥ 50 | O=C(O)CNC(=O)C[C@H]1CC[C@H](OC(=O)N2CCc3cc(NC(=O)Nc4ccccc4F)ccc3C2)CC1 [Example 35, trans-6-[3-(2-fluoro-phenyl)-ureido]-3,4-dihydro-1H-isoquinoline-2-carboxylic acid 4-[(carboxymethyl-carbamoyl)-methyl]-cyclohexyl ester]
4 | ≥ 50 | CC(NC(=O)C[C@H]1CC[C@H](OC(=O)N2CCc3cc(NC(=O)Nc4ccccc4F)ccc3C2)CC1)C(=O)O (stereo partly drawn) [Example 36, trans-6-[3-(2-fluoro-phenyl)-ureido]-3,4-dihydro-1H-isoquinoline-2-carboxylic acid 4-[(1-carboxy-ethylcarbamoyl)-methyl]-cyclohexyl ester]
5 | ≥ 50 | O=C(C[C@H]1CC[C@H](OC(=O)N2CCc3cc(NC(=O)Nc4ccccc4F)ccc3C2)CC1)NC1(C(=O)O)CC1 [Example 37, trans-6-[3-(2-fluoro-phenyl)-ureido]-3,4-dihydro-1H-isoquinoline-2-carboxylic acid 4-[(1-carboxy-cyclopropylcarbamoyl)-methyl]-cyclohexyl ester]

More lines, now with the values behind:

Row | Structure (SMILES) | inhibition at 0.05 µg/mL [%]
6 | O=C(O)C[C@@H]1CC[C@H](OC(=O)N2CCc3cc(NC(=O)Nc4ccccc4F)ccc3C2)C1 (relative stereo) [Example 6, cis-6-[3-(2-fluoro-phenyl)-ureido]-3,4-dihydro-1H-isoquinoline-2-carboxylic acid 3-carboxymethyl-cyclopentyl ester] | ≥ 50
7 | C[C@H]1C[C@@H](CC(=O)O)CC[C@H]1OC(=O)N1CCc2cc(NC(=O)Nc3ccccc3F)ccc2C1 (relative stereo) [Example 14, 6-[3-(2-fluoro-phenyl)-ureido]-3,4-dihydro-1H-isoquinoline-2-carboxylic acid c-4-carboxymethyl-c-2-methyl-r-1-cyclohexyl ester] | ≥ 50
8 | O=C(O)C[C@H]1CC[C@@H](OC(=O)N2CCc3cc(NC(=O)Nc4ccccc4F)ccc3C2)CC1 [Example 3, cis-6-[3-(2-fluoro-phenyl)-ureido]-3,4-dihydro-1H-isoquinoline-2-carboxylic acid 4-carboxymethyl-cyclohexyl ester] | ≥ 50
9 | O=C(Nc1ccc2c(c1)CCN(C(=O)O[C@H]1CC[C@@H](C(=O)O)CC1)C2)Nc1ccccc1F [Example 9, cis-6-[3-(2-fluoro-phenyl)-ureido]-3,4-dihydro-1H-isoquinoline-2-carboxylic acid 4-carboxy-cyclohexyl ester] | ≥ 50
10 | NC(=O)C[C@H]1CC[C@H](OC(=O)N2CCc3cc(NC(=O)Nc4ccccc4F)ccc3C2)CC1 [Example 18, trans-6-[3-(2-fluoro-phenyl)-ureido]-3,4-dihydro-1H-isoquinoline-2-carboxylic acid 4-carbamoylmethyl-cyclohexyl ester] | ≥ 50
11 | CC(C)(NC(=O)C[C@H]1CC[C@H](OC(=O)N2CCc3cc(NC(=O)Nc4ccccc4F)ccc3C2)CC1)C(=O)O [Example 19, trans-6-[3-(2-fluoro-phenyl)-ureido]-3,4-dihydro-1H-isoquinoline-2-carboxylic acid 4-[(1-carboxy-1-methyl-1-ethylcarbamoyl)-methyl]-cyclohexyl ester] | ≥ 50

From patent publication US8735425B2, “Tetrahydroisoquinoline derivative” (Daiichi Sankyo Company, Limited, priority 2008, dated 2014)
